In data set [1] the target is Aβ1-42. Further details: method as in PMID 34577548. The settings on record: literature ligands of Figure 1; cited from earlier work.
Data set [2] addresses α-synuclein aggregates. Details: method as in PMID 34577548. The settings on record: literature ligands of Figure 1; read-out: Ki α-syn; cited from earlier work.
The target in data set [3] is human recombinant α-syn fibrils (Homo sapiens, UniProt P37840). The data set can be described thus: In vitro competition binding assay against [3H]MODAG-001 on α-syn fibrils. The settings on record: for Ki: competition against 1 nM [3H]MODAG-001, α-syn fibrils 50 nM, mean Ki ± SEM; for binding affinity to α-syn fibrils (in words): competition against [3H]MODAG-001; for selectivity for α-syn over Aβ: ratio of Ki Aβ to Ki α-syn fibrils. Here is the method:
(§1) The APT library underwent in vitro testing to evaluate its binding affinity to human recombinant α-syn fibrils. Promising compounds were further tested on Aβ fibrils. […] Since the DPP and APT class of compounds share similarities, the APT library was tested in a competition binding assay with [^3H]MODAG-001 to determine its relative binding affinity and inhibition constant (Ki). The binding assay measured the displacement of the radioligand by increasing concentrations of competitor compounds, using fixed concentrations of fibrils and radioligand.
(§2) The dissociation constant (Kd) values of [^3H]MODAG–001 for human recombinant α-syn and synthetic human Aβ1–42 fibrils have previously been determined using saturation binding assays.[30] To determine the relative binding affinity (inhibition constant, Ki) of test compounds, competition binding assays of [^3H]MODAG-001 were performed. […] Human recombinant α-syn (50 nM) and synthetic human Aβ1–42 fibrils (1 μM) diluted in PBS (Gibco DPBS, no calcium, no magnesium, Thermo Fisher Scientific, Waltham, MA, USA) were incubated with increasing concentrations of test compounds (5 pM to 10 μM) against 1 nM [^3H]MODAG–001 in 30 mM Tris–HCl, 0.1% bovine serum albumin, and 0.05% Tween20 in 96-well micro test low-binding plates (ratiolab GmbH, Dreieich, Germany) to a total volume of 200 μL/well. Plates were incubated on a shaker (MaxQ 6000, Thermo Fisher Scientific Inc., Marietta, OH, USA) at 50 rpm for 2 h at 37 °C, covered by removable sealing tapes (PerkinElmer, Waltham, MA, USA). Vacuum filtration and read-out were performed as previously reported (Kuebler, Buss et al. 2021). Briefly, a glass fiber Filtermat B (PerkinElmer, Waltham, MA, USA) incubated with 0.5% polyethylenimine (PEI; Sigma-Aldrich Chemie GmbH, Taufkirchen, Germany) for 30 min at 4 °C before filter harvesting was used with a FilterMate Harvester (PerkinElmer, Waltham, MA, USA). Melt-on scintillator sheets (MeltiLex B/HS, PerkinElmer, Waltham, MA, USA) were molten onto dried filters. Accumulation of tritium was counted in a liquid scintillation Wallac MicroBeta TriLux counter (PerkinElmer, Waltham, MA, USA) at 2 min per well. Radioactivity in counts per minute for each concentration of the test compound was normalized to the radioactivity obtained in the absence of the test compound for conversion to percentage binding of the reference tracer. The resulting values were plotted against increasing concentrations of the test compounds. Data points were fitted using nonlinear regression analysis in GraphPad Prism (GraphPad Software, Inc., Version 8.4.0, La Jolla, CA, USA). The binding curve for [^3H]MODAG-001 saturation assay on α-syn fibrils is reported in the Supporting Information (Figure S6).

Data set [4] has as its target T1, synthetic human Aβ1–42 fibrils (Homo sapiens, UniProt P05067).
T1 construct: Synthetic lyophilized human Aβ1–42 peptide; purchased EMC Microcollections GmbH (Tuebingen, Germany); host or cells: chemical synthesis
The data set can be described thus: In vitro competition binding assay against [3H]MODAG-001 on Aβ1–42 fibrils. The note with it: for Ki: competition against 1 nM [3H]MODAG-001, Aβ1–42 fibrils 1 μM, mean Ki ± SEM. Here is the method:
as §1
α-Syn fibrils were generated as the previously reported method.[30] The generation of Aβ1–42 fibril was adapted from Bagchi et al. and previously described by Kuebler et al.[16],[31] Synthetic lyophilized human Aβ1–42 peptide with >90% purity purchased from EMC Microcollections GmbH (Tuebingen, Germany) was dissolved in dimethyl sulfoxide (DMSO; 5 mg in 221.5 μL). Deionized water (4.1 mL) and 1 M Tris–HCl (111 μL, pH 7.6) were added to obtain a final monomeric concentration of 250 μM. Aggregation was induced by incubating the monomers in Eppendorf Thermomixer at 37 °C with shaking at 800 rpm for 72 h. Generated fibrils were sonicated for 3 min in a water bath (Elmasonic S 60H, Elma Schmidbauer GmbH, Singen, Germany). The final products were aliquoted, frozen on dry ice, and stored at −80 °C until use. Aβ1–42 fibril quality was evaluated via thioflavin (ThT) fluorescence and radioligand saturation assay with [^3H]PiB and [^3H]MODAG-001.
as §2

Data set [5] is described as follows: Serum stability assay. Format: in vitro ADME. The note with it: 37 °C, within 90 min. Here is the method: Human serum was obtained from human male AB plasma, USA origin, sterile-filtered (Sigma-Aldrich, St. Louis, MO, USA).
The tracer formulation was mixed with an equal volume of human serum (250 μL) and incubated into a thermo-shaker at 37 °C, 300 rpm. At different time points (0, 15, 30, 60, and 90 min), 70 μL samples were drawn and mixed with ice-cold acetonitrile (1:1 dilution) and quickly vortexed. The dilute sample was incubated for 2 min on ice and centrifuged (MiniSpin centrifuge, Eppendorf) for 2 min at 13,400 rpm. An aliquot of the supernatant (120 μL) was analyzed by analytical radio-HPLC on a Luna C18(2), 5 μm, 250 × 4.6 mm column with 35% ACN in 0.1% aqueous TFA as mobile phase and at a flow rate of 1.5 mL/min in 10 min. The radiolabeled product was eluted at a retention time of 5.9 ± 0.2 min (Figure S5).

The nature of data set [6]: LogD determination (octanol/PBS). Format: physicochemical. The note with it: n = 3. Here is the method:
The logD was calculated experimentally by adding [^11C]APT-13 (1.5 MBq) to a 1.5 mL Eppendorf vial containing 500 μL of octanol (OCT) and 500 μL of PBS. The vial was vigorously vortexed and then, to achieve effective phase separation, centrifuged. Aliquots of 350 μL were collected from both OCT and PBS phases. The OCT sample was further washed with 350 μL of PBS; the phases mixture was shaken and centrifuged, and 200 μL of both phases were taken into new reaction tubes. The amount of radioactivity in each sample was quantified using a γ-counter. The log OCT/PBS values were calculated from the mean of n = 3 determinations (Table S3).
Table S3. Results from LogD determination assay.
C-11 CPM Description Mean value Mean value * dil

Data set [7] is described as follows: In vivo PET/MR imaging in healthy wild-type mice. Details: species or system mice (C57BL/6J). The note with it: iv. The protocol:
To assess the pharmacokinetic profile of [^11C]APT-13 in vivo, wild-type mice (n = 3) were iv injected, and the organ distribution was assessed over 60 min with dynamic PET and anatomical MR imaging (Figure 7A). […] Tracer clearance was largest through the liver (SUV ≈ 5), and high uptake was also observed in the heart (SUV ≈ 6) and lungs (SUV ≈ 5). Uptake with fast clearance was also observed in the kidney, indicating renal excretion within the first few minutes (Figure 7C).
To evaluate the pharmacokinetics of [^11C]APT-13, PET and subsequent MRI scans were performed in healthy mice (female, 21 weeks old, C57BL/6J) to determine brain uptake and washout as well as organ uptake of the liver, lungs, heart, kidneys, and brain. Scans were performed in a small animal Inveon PET scanner (Siemens Healthcare, Erlangen, Germany) and a 7T small animal MRI scanner (Bruker BioSpin GmbH, Ettlingen, Germany). The mice (n = 3) were anesthetized with 1.5% isoflurane evaporated in 100% oxygen at a flow of 0.8 L/min, and a catheter was placed in the tail vein. The body temperature was kept at 37 °C by using a feedback temperature control unit for a heat pump that was connected to the PET bed. Five seconds after the start of the PET acquisition, 15.2 ± 0.5 MBq (410 ± 13 μCi) of [^11C]APT-13 was injected intravenously. PET data were acquired in a dynamic scan for 60 min plus an extra 13 min of transmission measurement with a ^57Co-source for attenuation correction. Subsequently, mice were placed in the same bed position in the MRI, and an anatomical scan was performed using a Turbo RARE T2 sequence. For analysis, the 60 min of acquired PET data were divided into 39-time frames (12 × 5, 6 × 10, 6 × 30, 5 × 60, and 10 × 300 s) and reconstructed using the OSEM3D reconstruction algorithm. The PET scans were coregistered to the whole-body MRI scan using PMOD software (version 4.203; PMOD Technologies, Zürich, Switzerland), and the volume of interest (VOI) of the different organs (liver, lungs, heart, kidney, and brain) were hand-drawn according to the anatomical localization. VOI were selected from the mouse brain atlas in PMOD, time activity curves were extracted, and SUV were calculated by normalizing to the injected activity and animal weight.

Molecules are shown by their SMILES. “And” between values parts separate entries of the source, which are not always exact repeats. Identical values can stand only once.

T1 sequence (P05067 672-713): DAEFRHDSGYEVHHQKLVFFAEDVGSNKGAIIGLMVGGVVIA

With `COc1ccc(/C=C/c2cc(-c3nccs3)on2)cc1` [11b], the figures for the Ki in data set [1] and in data set [2] were 91.5 ± 58.7 nM and 18.5 ± 9.2 nM, respectively.

Regarding `c1csc(-c2cc(-c3ccc4c(c3)OCO4)n[nH]2)n1` [APT-1, 2-(3-(Benzo[d][1,3]dioxol-5-yl)-1H-pyrazol-5-yl)thiazole], the results for the inhibition constant Ki in data set [3] and in data set [4] were 145 ± 46 nM and 561 nM, respectively. Moreover, the “binding affinity to α-syn fibrils (in words)” value (from here on “binding affinity”) in data set [3] is “moderate affinity”. For the same molecule, the “binding to Aβ fibrils (in words)” value in data set [4] (competition against [3H]MODAG-001) was “significantly lower binding”.

In the case of `c1coc(-c2cc(-c3ccc4c(c3)OCO4)n[nH]2)n1` [APT-2, 2-(3-(Benzo[d][1,3]dioxol-5-yl)-1H-pyrazol-5-yl)oxazole], in data set [3], the Ki (commonly the dissociation constant of the complex between target and ligand, obtained from inhibition or displacement) was 134 nM.

With `O=C(/C=C/c1ccc2c(c1)OCO2)c1nccs1` [APT-3, (E)-3-(Benzo[d][1,3]dioxol-5-yl)-1-(thiazol-2-yl)prop-2-en-1-one], the Ki in data set [3] was above 894 nM.

In the case of `Brc1csc(-c2cc(-c3ccc4c(c3)OCO4)n[nH]2)n1` [APT-4, 2-(3-(Benzo[d][1,3]dioxol-5-yl)-1H-pyrazol-5-yl)-4-bromothiazole], the Ki in data set [3] was 50 nM and 49.7 nM; in data set [4], 1030 ± 562 nM. For the same molecule, the “selectivity for α-syn over Aβ” value in data set [3] is listed as above 8 fold.

For the molecule `CN(C)c1ccc(-c2cc(-c3nccs3)[nH]n2)cc1` [APT-5, N,N-Dimethyl-4-(5-(thiazol-2-yl)-1H-pyrazol-3-yl)aniline], the inhibitory constant (Ki) in data set [3] turned out to be 217 nM.

`FCCNc1ccc(-c2cc(-c3nccs3)[nH]n2)cc1` [APT-6, N-(2-Fluoroethyl)-4-(5-(thiazol-2-yl)-1H-pyrazol-3-yl)aniline]: in data set [3], the inhibition constant (Ki) was 184 nM and the “binding affinity” value was “modest affinity”.

For `CNc1ccc(-c2cc(-c3nccs3)[nH]n2)cc1` [APT-7, N-Methyl-4-(5-(thiazol-2-yl)-1H-pyrazol-3-yl)aniline], in data set [3], the Ki is 45 nM and 44.5 nM; the “selectivity for α-syn over Aβ” value is given as above 20 fold. The inhibitory constant (Ki) in data set [4] was determined as 381 ± 217 nM.

With `Cn1nc(-c2ccc3c(c2)OCO3)cc1-c1nccs1` [APT-8, 2-(3-(Benzo[d][1,3]dioxol-5-yl)-1-methyl-1H-pyrazol-5-yl)thiazole], the Ki in data set [3] is above 14200 nM.

Regarding `Brc1cnc(-c2cc(-c3ccc4c(c3)OCO4)n[nH]2)s1` [APT-9, 2-(3-(Benzo[d][1,3]dioxol-5-yl)-1H-pyrazol-5-yl)-5-bromothiazole], in data set [3], the Ki was 187 nM and the “binding affinity” value was “poor binding”. Besides, the inhibition constant Ki in data set [4] is 230 nM.

On to `Fc1csc(-c2cc(-c3ccc4c(c3)OCO4)n[nH]2)n1` [APT-10, 2-(3-(Benzo[d][1,3]dioxol-5-yl)-1H-pyrazol-5-yl)-4-fluorothiazole], for which the inhibition constant (Ki) in data set [3] came out at 818.4 ± 1.8 nM.

`CNc1ccc(/C=C/C(=O)c2nccs2)cc1` [APT-11, (E)-3-(4-(Methylamino)phenyl)-1-(thiazol-2-yl)prop-2-en-1-one]: the Ki in data set [3] worked out at 1010 ± 34 nM; in data set [4], 377 nM.

As to `CNc1ccc(/C=C/C(=O)c2nc(Br)cs2)cc1` [APT-12, (E)-1-(4-Bromothiazol-2-yl)-3-(4-(methylamino)phenyl)prop-2-en-1-one], the Ki in data set [3] is 198 ± 142 nM; in data set [4], 587 nM.

Consider `CNc1ccc(-c2cc(-c3nc(Br)cs3)[nH]n2)cc1` [APT-13, 4-(5-(4-Bromothiazol-2-yl)-1H-pyrazol-3-yl)-N-methylaniline], for which the Ki was 27.8 ± 9.7 nM in data set [3] and 92.6 ± 48.8 nM in data set [4].

As to `Cn1nc(-c2ccc3c(c2)OCO3)cc1-c1nc(Br)cs1` [APT-14, 2-(3-(Benzo[d][1,3]dioxol-5-yl)-1-methyl-1H-pyrazol-5-yl)-4-bromothiazole], the “binding affinity” value in data set [3] is recorded as “loss of competition”.

For the molecule `O=C(/C=C/C=C/C=C/c1ccc([N+](=O)[O-])cc1)c1ccc(OCC(O)CF)cc1` (stereo not drawn) [FHCL-2], the “Ki Aβ1-42” value in data set [1] is recorded as “no competition”. Further, the inhibition constant Ki in data set [2] is 3.4 ± 0.1 nM.

In the case of `[11CH3]Nc1ccc(-c2cc(-c3nc(Br)cs3)[nH]n2)cc1` [[^11C]APT-13], the “stability in human serum” value in data set [5] is recorded as “did not show evidence of degradation”. For the same molecule, in data set [6], the logD (usually the decadic logarithm of the distribution of all forms, ionised or not, between an organic phase and buffer at a given pH) is 3.16. In data set [7] (n = 3), the SUV heart result is given as “≈ 6”, the SUV liver entry was “≈ 5” and the SUV lungs entry is “≈ 5”. For the same molecule, the “peak SUV in brain” value in data set [7] (n = 3, dynamic PET 60 min) is reported as 1.94 ± 0.29.

`Fc1ccc(-c2csc(-c3nc(-c4cnc5c(c4)OCO5)cs3)n2)cn1` [d8]: the values for the Ki in data set [1] and in data set [2] were 386 nM and 0.1 nM, respectively.

The values above are taken from PMC11170759, “Advancing Parkinson’s Disease Diagnostics: The Potential of Arylpyrazolethiazole Derivatives for Imaging α-Synuclein Aggregates” (ACS Omega, 2024).
